{"source": "patent US20220257698A1", "about": "“ANGIOTENSIN TYPE 2 (AT2) RECEPTOR AGONISTS FOR USE IN THE TREATMENT OF CANCER” (LANTHIOPEP B.V., priority 2019, published 2022)", "key": {"[1]": {"system": "OvCa13329 ovarian cancer PDX model", "experiment": "KcAng(1-7) on growth of ovarian carcinoma PDX OvCa13329 in mice", "type": "in vivo, NMRI nu/nu mice (human PDX)", "details": "for optT/C: day 11 of the treatment", "procedure": "In vivo studies were conducted at EPO GmbH Berlin. Large studies (FIG. 1A, 2, 3, 4, 5) comprised 3 groups of 10 mice/group and 5 animals as reserve, as outlined in Table 1. Smaller studies (FIG. 1B, 1C, 1D) comprised 2 groups of mice of 3 mice per group. The animals were allocated to the various treatment groups (e.g. 0.2 μg/kg and 30 μg/kg) with a maximum of 10 animals per group. […] The groups received subcutaneous (s.c.) drug injection (for max. 28 days) as outlined in the Table 1.\nNMRI nu/nu mice were used in this study. The animals were female at age of 6 to 8 weeks. The respective PDX tumors were inoculated subcutaneously (s.c.), and the tumors were grown to achieve palpable tumor sizes before start of the respective treatments. The PDX included breast (MaCa4151), colon (Co9689A), head & neck (HN10309), lung (Lu7433) and ovarian (OvCa13329) cancer (Table 2).\nTreatment with KcAng(1-7) was started with palpable tumors after the randomization of animals regarding tumor volume. KcAng(1-7) was applied s.c. by daily injections at […] or 30 μg/kg dose for a maximum of 28 days (or earlier as defined by the humane end point for the study).\nKcAng(1-7) was prepared as follows: The compounds was suspended in sterile PBS resulting in a clear solution. The remains of this formulation were stored at 4° C.\nTumor growth stimulatory or inhibitory activity of the KcAng(1-7) was evaluated by determination of tumor volumes (TV). During the study, tumor volumes and body weight were measured twice a week, and the ratio of the mean tumor volumes between the compound-treated group and the vehicle-treated group (T/C) was calculated.\nTumor volume=(tumor width)×(tumor width)×(tumor length)+2\nT/C=T÷C • T: Mean estimated tumor volume of the compound-treated group • C: Mean estimated tumor volume of the vehicle-treated group"}, "U251MG glioblastoma CDX": {"system": "U251MG glioblastoma CDX", "experiment": "Subcutaneous U251MG glioblastoma CDX: time of tumor progression", "type": "in vivo, cd1 nu/nu mice (human GBM cell line)", "details": "KcAng(1-7) 1 μg/kg/d, Losartan 20 mg/kg/d, or both", "procedure": "Effects of KcAng(1-7) were evaluated in vivo in a subcutaneous GBM xenograft model in nude mice. Insurgence of neurologic phenomena and differences in the survival rates were evaluated. Human GBM cell lines U87MG and U251MG were used. Cell lines were grown in DMEM nutrient mixture supplemented with 10% fetal bovine serum, 1% penicillin/streptomycin, and 25 mM HEPES buffer. All cell lines were cultured at 37° C. in a humidified atmosphere consisting of 5% CO2 and 95% air. Medium was changed every 2 days and the cell morphology was evaluated under microscope daily. Six-week-old male athymic nude mice (age 5-7 weeks) were housed with free access to food and water in a temperature-controlled room. Each group is represented by 10 xenograft cd1 nu/nu mice. […] Xenografts were measured every four days with a digital caliper in two perpendicular dimensions. Tumor volume was calculated according to the following formula: In vivo tumor response to treatment was evaluated using the following parameters: […] […] TP, TTP and DFS were analyzed by Kaplan-Meier curves and Gehan's generalized Wilcoxon test. […]"}, "[2]": {"details": "Gr. B 0.2 μg/kg/d s.c., Day 7 (Meas. 1)"}, "[3]": {"details": "Gr. B 0.2 μg/kg/d s.c., Day 11 (Meas. 2)"}, "[4]": {"details": "Gr. B 0.2 μg/kg/d s.c., Day 14 (Meas. 3)"}, "[5]": {"details": "Gr. B 0.2 μg/kg/d s.c., Day 18 (Meas. 4)"}, "[6]": {"details": "Gr. B 0.2 μg/kg/d s.c., Day 21 (Meas. 5)"}, "[7]": {"details": "Gr. C 30 μg/kg/d s.c., Day 7 (Meas. 1)"}, "[8]": {"details": "Gr. C 30 μg/kg/d s.c., Day 11 (Meas. 2)"}, "[9]": {"details": "Gr. C 30 μg/kg/d s.c., Day 14 (Meas. 3)"}, "[10]": {"details": "Gr. C 30 μg/kg/d s.c., Day 18 (Meas. 4)"}, "[11]": {"details": "Gr. C 30 μg/kg/d s.c., Day 21 (Meas. 5)"}}}
{"substance": "Lys-Asp-Arg-Val-Abu/Ala-Ile-His-Abu/Ala (KDRVAIHA; not fully specified; cyclic thioether (Abu/Ala bridge); VARIANT (5)..(5) /replace=“Abu”; VARIANT (8)..(8) /replace=“Abu”; SITE (1)..(8) /note=“Variant residues given in the sequence have no preference with respect to those in the annotations for variant positions”) [KcAng(1-7)]", "values": [{"measurement": "optT/C", "setting": "[1]; 0.2 μg/kg", "value": 55.8, "unit": "%"}, {"measurement": "optT/C", "setting": "[1]; 30 μg/kg", "value": 51, "unit": "%"}, {"measurement": "effect on tumor volume", "setting": "[1]; 0.2 and 30 μg/kg, 15 days", "value": "significant reduction in tumor volume"}, {"measurement": "RTV Mean", "setting": "[1]; [2]", "value": 1}, {"measurement": "RTV Median", "setting": "[1]; [2]", "value": 1}, {"measurement": "T/C", "setting": "[1]; [2]", "value": 102.4, "unit": "%"}, {"measurement": "Tumor Vol. Mean", "setting": "[1]; [2]", "value": 0.122, "unit": "cm^3"}, {"measurement": "Tumor Vol. Median", "setting": "[1]; [2]", "value": 0.123, "unit": "cm^3"}, {"measurement": "RTV Mean", "setting": "[1]; [3]", "value": 1.6}, {"measurement": "RTV Median", "setting": "[1]; [3]", "value": 1.5}, {"measurement": "T/C", "setting": "[1]; [3]", "value": 55.8, "unit": "%"}, {"measurement": "Tumor Vol. Mean", "setting": "[1]; [3]", "value": 0.192, "unit": "cm^3"}, {"measurement": "Tumor Vol. Median", "setting": "[1]; [3]", "value": 0.181, "unit": "cm^3"}, {"measurement": "RTV Mean", "setting": "[1]; [4]", "value": 3.1}, {"measurement": "RTV Median", "setting": "[1]; [4]", "value": 3}, {"measurement": "T/C", "setting": "[1]; [4]", "value": 68.5, "unit": "%"}, {"measurement": "Tumor Vol. Mean", "setting": "[1]; [4]", "value": 0.384, "unit": "cm^3"}, {"measurement": "Tumor Vol. Median", "setting": "[1]; [4]", "value": 0.337, "unit": "cm^3"}, {"measurement": "RTV Mean", "setting": "[1]; [5]", "value": 8.5}, {"measurement": "RTV Median", "setting": "[1]; [5]", "value": 8}, {"measurement": "T/C", "setting": "[1]; [5]", "value": 73.9, "unit": "%"}, {"measurement": "Tumor Vol. Mean", "setting": "[1]; [5]", "value": 0.985, "unit": "cm^3"}, {"measurement": "Tumor Vol. Median", "setting": "[1]; [5]", "value": 1.015, "unit": "cm^3"}, {"measurement": "RTV Mean", "setting": "[1]; [6]", "value": 13.4}, {"measurement": "RTV Median", "setting": "[1]; [6]", "value": 11.9}, {"measurement": "T/C", "setting": "[1]; [6]", "value": 79.3, "unit": "%"}, {"measurement": "Tumor Vol. Mean", "setting": "[1]; [6]", "value": 1.547, "unit": "cm^3"}, {"measurement": "Tumor Vol. Median", "setting": "[1]; [6]", "value": 1.398, "unit": "cm^3"}, {"measurement": "RTV Mean", "setting": "[1]; [7]", "value": 1}, {"measurement": "RTV Median", "setting": "[1]; [7]", "value": 1}, {"measurement": "T/C", "setting": "[1]; [7]", "value": 97, "unit": "%"}, {"measurement": "Tumor Vol. Mean", "setting": "[1]; [7]", "value": 0.116, "unit": "cm^3"}, {"measurement": "Tumor Vol. Median", "setting": "[1]; [7]", "value": 0.115, "unit": "cm^3"}, {"measurement": "RTV Mean", "setting": "[1]; [8]", "value": 1.6}, {"measurement": "RTV Median", "setting": "[1]; [8]", "value": 1.6}, {"measurement": "T/C", "setting": "[1]; [8]", "value": 51.1, "unit": "%"}, {"measurement": "Tumor Vol. Mean", "setting": "[1]; [8]", "value": 0.176, "unit": "cm^3"}, {"measurement": "Tumor Vol. Median", "setting": "[1]; [8]", "value": 0.182, "unit": "cm^3"}, {"measurement": "RTV Mean", "setting": "[1]; [9]", "value": 2.6}, {"measurement": "RTV Median", "setting": "[1]; [9]", "value": 2.7}, {"measurement": "T/C", "setting": "[1]; [9]", "value": 54.9, "unit": "%"}, {"measurement": "Tumor Vol. Mean", "setting": "[1]; [9]", "value": 0.308, "unit": "cm^3"}, {"measurement": "Tumor Vol. Median", "setting": "[1]; [9]", "value": 0.33, "unit": "cm^3"}, {"measurement": "RTV Mean", "setting": "[1]; [10]", "value": 8.4}, {"measurement": "RTV Median", "setting": "[1]; [10]", "value": 8.4}, {"measurement": "T/C", "setting": "[1]; [10]", "value": 72.2, "unit": "%"}, {"measurement": "Tumor Vol. Mean", "setting": "[1]; [10]", "value": 0.962, "unit": "cm^3"}, {"measurement": "Tumor Vol. Median", "setting": "[1]; [10]", "value": 0.995, "unit": "cm^3"}, {"measurement": "RTV Mean", "setting": "[1]; [11]", "value": 12.6}, {"measurement": "RTV Median", "setting": "[1]; [11]", "value": 13}, {"measurement": "T/C", "setting": "[1]; [11]", "value": 73.9, "unit": "%"}, {"measurement": "Tumor Vol. Mean", "setting": "[1]; [11]", "value": 1.442, "unit": "cm^3"}, {"measurement": "Tumor Vol. Median", "setting": "[1]; [11]", "value": 1.503, "unit": "cm^3"}, {"measurement": "Time of tumor progression - TTP, mean (days ± SEM)", "setting": "U251MG glioblastoma CDX", "value": "14.4 ± 0.8", "unit": "days"}]}
